Holding throughout (type): cell-based
Assay [1] relates to MDA-MB-231 cells. Put plainly: Transwell invasion assay through collagen I, MDA-MB-231. The conditions noted are these: peptide 50 ng/mL for 30 min, NGF in lower chamber, 24 h (legend: 16 h). As for the experimental part:
Transwell invasion assays were performed to assess cancer cell invasion in a Transwell chamber containing a collagen I-coated membrane (12-wells with inserts and […] pore size membranes; Corning, Life Sciences). A total of 1 × 10^6 starved cells (0.1% in SVF medium) were plated in the top chamber and incubated for 10 min before treatment with a peptide (50 ng/mL for 30 min); NGF was added to the lower chamber. After 24 h, the cells were fixed with methanol for 10 min and stained with Hoechst 33258 (1 mg/mL) for 30 min, and the cells that invaded the lower surface through the pores of the inserts were automatically counted under an inverted microscope with ImageJ software (with an in-house-developed plug-in).
(§1) Fig. 4 CD44v3 mimetic peptide 4 inhibits MDA-MB-231 breast cancer cell growth and migration/invasion. Clonogenic MDA-MB-231 cell growth was measured after 10 days in the presence of a scramble peptide (SP) or CD44v3 mimetic peptide (P4) (A, B). The elongation factor (length-to-width ratio) was assessed after 10 days in the presence or absence of NGF (C, D, E). Migration assays were performed using Ibidi devices 24 h after treatment (H, I). Invasion through collagen 1 was measured by the Transwell assay 16 h after treatment (J, K). Statistical analyses were performed using one-way ANOVA followed by Bonferroni’s posttest. […]

Assay [2] concerns TrkA/CD44v3 complex in MDA-MB-231 cells. Kind of assay: PLA TrkA/CD44v3 complex formation in MDA-MB-231 cells. The conditions noted are these: NGF 100 ng/ml; 30 fields per condition, three experiments. As to the method:
Cells (10,000 cells per well) were grown on acid-washed eight-well glass slides (Thermo Scientific) in the appropriate medium supplemented with 10% FBS for 24 h. After NGF treatment, paraformaldehyde (PAF)-fixed cells were incubated with 4% bovine serum albumin (BSA) or 5% FBS (for 1 h at 20 °C), followed by overnight incubation with primary antibodies (rabbit anti-TrkA or rabbit anti-IgG + mouse anti-pan-CD44; mouse anti-CD44v3; mouse anti-CD44v6; mouse anti-IgG2a; mouse anti-IgG2b; or mouse anti-IgG1). PLA was performed following the manufacturer’s instructions in the assay kit (Duolink PLA; Sigma–Aldrich). To obtain the correct representation of the PLA signal for each condition, 30 fields per condition were observed using a fluorescence microscope (Eclipse TiU; Nikon, Japan). The PLA signals (red dots) were automatically quantified using ImageJ software (with an in-house-developed plug-in). After PLA, statistical analyses were performed using GraphPad Prism software to determine the mean dot intensity in the cells.
Fig. 3 CD44v3 mimetic peptide 4 blocks the TrkA-CD44 association in MDA-MB-231 breast cancer cells. TrkA/CD44v3 (A) and TrkA/CD44v6 (B) complex associations were detected by the proximity ligation assay (PLA) in MDA-MB-231 breast cancer cells. Effects of a scramble peptide (SP) (C), CD44v3 mimetic peptide 3 (P3) and 4 (P4) (D) on TrkA/CD44v3 complex formation induced by NGF. Quantification of the PLA results was performed by ImageJ software (30 randomly chosen fields per condition of three different experiments). Statistical analyses were performed using one-way ANOVA followed by Bonferroni’s posttest. The error bars represent the standard error of the mean (S.E.M.); * p < 0.05, ** p < 0.01, *** p < 0.001; ns, not significant

The subject of assay [3] is MDA-MB-231 cells. Kind of assay: Scratch/wound migration assay, MDA-MB-231. The following applies: peptide 50 ng/mL 30 min before NGF 100 ng/ml; 24 h, 0.1% FBS; siCD44v3 24 h after treatment. As for the experimental part:
Scratch/wound migration assays were performed using inserts (Ibidi, Germany). MDA-MB-231 cells (4 × 10^5 cells/mL) were seeded onto each side of the chamber and incubated overnight at 37 °C until they reached the subconfluent stage. Next, the inserts were removed, and the cells were rinsed and starved (1 mL of 0.1% FBS medium for 1 h). Images of the initial wound were obtained using an inverted microscope, and the cells were incubated with or without the peptide (scramble or P4; 50 ng/mL) for 30 min and stimulated with NGF (100 ng/ml). After 24 h, images (2/wound) were obtained of the same place on the wound as those initially taken. The distance between the 2 migration fronts was measured using ImageJ software.
as §1

Assay [4] has as its system MDA-MB-231 cells. Kind of assay: Elongation factor (length-to-width ratio), MDA-MB-231. The following applies: MDA-MB-231, with NGF. As to the method: Therefore, in this study, we assessed TrkA binding to CD44v3 in MDA-MB-231 cells, which were used as TNBC model cells. First, PLA was performed using anti-CD44 variant 3- (Fig. 3A and Supplementary Fig. 7) or anti-CD44 variant 6-specific antibodies (Fig. 3B). […] Next, we tested the ability of CD44v3 mimetic peptides to block TrkA/CD44v3 complex formation in MDA-MB-231 cells (Fig. 3C-E). […] Therefore, we evaluated the physiological consequences of TrkA/CD44v3 complex dissociation induced by CD44v3 mimetic peptide 4 on MDA-MB-231 cell phenotypes (Fig. 4). We first examined the effect of mimetic peptide 4 on clonogenic cell growth. For this experiment, MDA-MB-231 cells were grown in the presence of 2% FBS for […] in the presence or absence of CD44v3 mimetic peptide 4 (Fig. 4A and B). […] We first determined the effect of CD44v3 on the length-to-width (l/w) ratio of the cells (elongation factor) (Fig. 4C-E). […]
Fig. 4 CD44v3 mimetic peptide 4 inhibits MDA-MB-231 breast cancer cell growth and migration/invasion. Clonogenic MDA-MB-231 cell growth was measured after 10 days in the presence of a scramble peptide (SP) or CD44v3 mimetic peptide (P4) (A, B). The elongation factor (length-to-width ratio) was assessed after 10 days in the presence or absence of NGF (C, D, E). […] Invasion through collagen 1 was measured by the Transwell assay 16 h after treatment (J, K). […]

These results are taken from article PMC8962522, “Direct interaction of TrkA/CD44v3 is essential for NGF-promoted aggressiveness of breast cancer cells” (Journal of Experimental & Clinical Cancer Research : CR, 2022).

Consider “IDDDEDFISST [Peptide 4, mimetic peptide 4 (…) corresponding to the C-terminal region of CD44v3]”, for which the “effect on invasion of MDA-MB-231 cells” value in the assay with MDA-MB-231 cells [1] was “a decrease in both basal levels and NGF-induced invasion was observed”. Further, in assay [2], the “effect on TrkA/CD44v3 complex formation (PLA) in MDA-MB-231 cells” value is “could disrupt TrkA/CD44v3 complex formation in MDA-MB-231 cells”. The “effect on migration (wound closure) of MDA-MB-231 cells” value with MDA-MB-231 cells [3] was “completely blocked NGF-dependent wound closure”. The “effect on length-to-width (l/w) ratio (elongation factor)” value with MDA-MB-231 cells [4] was “This effect of NGF was inhibited”.

On to “NGF: recombinant human β-NGF (Alomone Labs, Israel)”, for which, in the assay with MDA-MB-231 cells [1], the “effect on invasion of MDA-MB-231 cells” value is listed as “more NGF-treated cells than untreated cells invaded the collagen substrate”. In addition, the “effect on TrkA/CD44v3 complex formation (PLA) in MDA-MB-231 cells” value in assay [2] was “induced TrkA/CD44v3 complex formation in MDA-MB-231 cells at the plasma membrane within 5 min to 30 min of administration”. For the same substance, the “effect on migration (wound closure) of MDA-MB-231 cells” value with MDA-MB-231 cells [3] is “the migration of MDA-MB-231 cells was increased, as indicated by complete wound closure 24 h after treatment”. Further, the “effect on length-to-width (l/w) ratio (elongation factor)” value in the assay on MDA-MB-231 cells [4] is “significant increase in the l/w ratio”.
